Data as given in patent US20250281560A1, “METHOD FOR PREVENTING AND/OR TREATING CANCER OR AUTOIMMUNE DISEASE WITH 3,4,2 Prime,3 Prime,4 Prime-PENTAHYDROXY-TRANS-CHALCONE” (priority 2024, published 2025).

Assays:
[1] = biological target: T1, human ornithine decarboxylase (ODC) (Homo sapiens, UniProt P11926); experiment: Inhibition of the activity of human ornithine decarboxylase by continuous spectrophotometry; assay type: biochemical; conditions: isolated component, FIG. 9
T1 sequence (P11926 1-461): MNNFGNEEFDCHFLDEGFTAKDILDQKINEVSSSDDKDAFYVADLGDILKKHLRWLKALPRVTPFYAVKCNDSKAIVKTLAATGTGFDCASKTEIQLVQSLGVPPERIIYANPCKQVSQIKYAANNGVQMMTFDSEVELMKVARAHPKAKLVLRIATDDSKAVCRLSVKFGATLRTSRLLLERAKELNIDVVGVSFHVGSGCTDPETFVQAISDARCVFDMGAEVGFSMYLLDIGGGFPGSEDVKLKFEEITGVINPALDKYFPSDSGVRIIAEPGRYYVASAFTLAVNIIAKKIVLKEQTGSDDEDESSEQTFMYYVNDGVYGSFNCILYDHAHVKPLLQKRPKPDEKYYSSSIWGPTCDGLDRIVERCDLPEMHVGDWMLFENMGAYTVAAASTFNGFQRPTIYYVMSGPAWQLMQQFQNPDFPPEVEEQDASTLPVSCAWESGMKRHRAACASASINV
Method: In this example, inhibition of the activity of human ornithine decarboxylase (ODC) was tested by continuous spectrophotometry. The standard ODC spectrophotometric reaction composition contained 30 mM Tris-HCl (pH 7.8), 10 mM ornithine, and 0.2 mM pyridoxal 5′-phosphate (PLP), together with 12.5 mM phosphoenolpyruvate, 0.4 unit/mL […] of microbes, 4.1 unit/mL malate dehydrogenase (malate dehydrogenase of mammals), and 0.6 mM NADH analog, with the final volume being 0.5 mL. The test mixture was added with a predetermined amount of an Acacia confusa extract sample as an inhibitor and then added with an appropriate amount of ODC to start the reaction. Once the enzyme ODC was added into the reaction mixture, the decrease in absorbance at 405 nm was continuously tracked with Lambda 25 UV-visible spectrophotometer (PerkinElmer Life Sciences). By this test method, 1 mole of CO2 was generated under the test conditions, and 1 mole of NADH analog was oxidized. The unit of the enzyme ODC was defined as the amount of the enzyme that is required to catalyze the generation of 1 mole of NAD per minute. For the calculation, 2410 M^−1cm^−1 was used as the molar absorptivity of the NADH analog. […]

[2] = biological target: human peptidylarginine deiminase 4 (PAD4) (Homo sapiens, UniProt Q9UM07); experiment: Inhibition of the activity of human peptidylarginine deiminase 4 by continuous spectrophotometry; assay type: biochemical; conditions: human PAD4, isolated component, FIG. 10
Chain of human peptidylarginine deiminase 4 (PAD4) (Q9UM07 whole entry): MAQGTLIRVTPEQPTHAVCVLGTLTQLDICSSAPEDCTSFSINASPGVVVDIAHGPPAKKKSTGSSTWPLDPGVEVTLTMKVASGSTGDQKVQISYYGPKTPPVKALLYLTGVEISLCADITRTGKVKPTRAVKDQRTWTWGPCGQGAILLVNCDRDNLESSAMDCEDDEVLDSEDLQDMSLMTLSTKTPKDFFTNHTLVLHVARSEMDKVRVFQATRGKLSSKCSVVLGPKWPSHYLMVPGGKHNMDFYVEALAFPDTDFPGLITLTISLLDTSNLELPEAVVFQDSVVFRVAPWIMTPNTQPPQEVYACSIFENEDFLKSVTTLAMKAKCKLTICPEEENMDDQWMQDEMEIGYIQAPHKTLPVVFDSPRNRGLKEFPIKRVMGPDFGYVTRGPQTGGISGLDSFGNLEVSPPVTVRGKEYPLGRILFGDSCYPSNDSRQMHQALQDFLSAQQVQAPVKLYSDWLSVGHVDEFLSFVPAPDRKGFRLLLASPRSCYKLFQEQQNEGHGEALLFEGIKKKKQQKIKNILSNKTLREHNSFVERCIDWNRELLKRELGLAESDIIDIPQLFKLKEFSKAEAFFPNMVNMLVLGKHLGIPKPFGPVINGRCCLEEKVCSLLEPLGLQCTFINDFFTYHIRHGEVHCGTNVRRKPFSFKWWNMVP
Method: In this example, inhibition of the activity of human peptidylarginine deiminase 4 (PAD4) was tested by continuous spectrophotometry. The standard PAD4 spectrophotometric reaction mixture contained 10 mM BAEE (benzoyl-L-arginine ethyl ester), 10 mM CaCl2), 2.5 mM dithiothreitol (DTT), 8.5 mM α-ketoglutarate (α-KG), 0.22 mM NADH, and 3 U glutamate dehydrogenase (GDH). 100 mM Tris-HCl (pH 7.5) was added into a 1-mL colorimetric tube, followed by a predetermined amount of an Acacia confusa extract sample as an inhibitor. The temperature was controlled at 37° C. An appropriate amount of PAD4 was then added into the test mixture to start the reaction. Once the enzyme PAD4 was added into the reaction mixture, the decrease in absorbance at 340 nm was continuously recorded with a spectrophotometer (Beckman DU 7500). The unit of the enzyme PAD4 was defined as the amount reduced in order to catalyze the conversion of 1 μmol of NADH to NAD^+ per minute. For the calculation of enzyme activity, 6220 M^−1cm^−1 was used as the molar absorptivity of the NADH.
Referring to the content of Example 3 to detect the inhibiting activity of peptidylarginine deiminase 4 (PAD4) of components of the Acacia confusa ethyl acetate extract: Melanoxetin, Okanin and Transilitin, the results are shown in FIG. 10.

- IC50 [1]: 8.2 ± 2.1 µM
- IC50 [2]: 89.2 ± 8.3 µM
Compound: O=C(/C=C/c1ccc(O)c(O)c1)c1ccc(O)c(O)c1O [Okanin, 3,4,2′,3′,4′-pentahydroxy-trans-chalcone]
